Four compounds from patent US7897620B2, “Methods of using anti-inflammatory compounds” (Cambridge Enterprise Limited, priority 2007, dated 2011) can be followed below.

Broadly, the clearance is the volume of plasma or blood freed of the substance per unit of time. A word on the half-life: it is how long it takes for the measured level to halve. Lower therefore signals rapid decline. The term AUC denotes the area under the concentration-time curve, a measure of exposure. Read a high AUC as high exposure. The term Tmax denotes the time from dosing to the highest level. As a reminder, the bioavailability is the share of a dose that reaches the circulation, judged against a reference dose that is usually intravenous.

Read-outs that look alike come from different tables or passages of the source.

Data set [1] in a line: Pharmacokinetics following a single dose in dog (crossover iv / per os). The data set is classed as in vivo. The settings on record: plasma; for Vd: read-out: Vss. The protocol:
In a separate experiment, (I′) was compared with the second best compound (V) for pharmacokinetic parameters in a different (non-rodent) species, the dog. Single doses (1 mg/kg in 5% DMSO intravenously or 3 mg/kg in 1% CMC per os) were administered to a single dog for each compound in a simple crossover design with 1 week washout between the two routes of administration.

The test system of data set [2] is MCP-1 induced THP-1 cell migration. In words: ChemoTx transwell migration assay, MCP-1 induced migration of THP-1 cells. The data set is classed as cell-based. The conditions noted are these: Homo sapiens. The protocol:
(§1) In principle, this assay consists of two chambers separated by a porous membrane. The chemoattractant is placed in the lower compartment and the cells are placed in the upper compartment. After incubation for a period at 37° C. the cells move towards the chemoattractant, and the number of cells in the lower compartment is proportional to the chemoattractant activity (relative to a series of controls).
(§2) The THP-1 cell line (European Cell Culture Collection) were used as the leukocyte cell population.
(§3) First, the cell suspension to be placed in the upper compartment is prepared. The THP-1 cells are pelleted by centrifugation (770×g; 4 mins) and washed with Geys Balanced Salt Solution with 1 mg/ml BSA (GBSS+BSA). This wash is then repeated, and the cells repelleted before being resuspended in a small volume of GBSS+BSA for counting, for example using a standard haemocytometer.
(§4) The volume of GBSS+BSA is then adjusted depending on the number of cells present so that the cells are at final density of 4.45×10^6 cells per ml of GBSS+BSA. This ensures that there are […] THP-1 cells in each 25 μl of the solution that will be placed in the upper chamber of the plate.
To test a single compound for its ability to inhibit chemokine induced migration, it is necessary to prepare two lots of cells. The suspension of THP-1 cells at 4.45×10^6 cells/ml is divided into two pots. To one pot the inhibitor under test is added at an appropriate final concentration, in an appropriate vehicle (for example at 1 μM in not more than 1% DMSO). To the second pot an equal volume of GBSS+BSA plus vehicle as appropriate (e.g. not more than 1% DMSO) is added to act as a control.
Next, the chemoattractant solution to be placed in the lower compartment is prepared. For example, MCP-1 is diluted in GBSS+BSA to give a final concentration of 25 ng/ml. This is divided into two pots, as for the cell suspension. To one pot, the test compound is added to the same final concentration as was added to the cell suspension, while to the other pot an equal volume of GBSS+BSA plus vehicle as appropriate (e,g. not more than 1% DMSO) is added. Alternatively, other chemokines may be used (SDF-1α at 7.5 ng/ml; RANTES at 50 ng/ml; IL-8 at 10 ng/ml using neutrophils as the target cell population). In each case it is important to determine (in a separate experiment) the concentration of each chemokine which causes maximal stimulation of migration of the chosen target leukocyte population. This maximal concentration must then be used in experiments to test the inhibitory activity of the compounds of the invention.
Once the chemoattractant solutions for the lower wells and cell solutions for the upper chambers have been prepared, the migration chamber should be assembled. Place 29 μl of the appropriate chemoattractant solution into the lower well of the chamber. Assays should be performed with at least triplicate determinations of each condition. Once all the lower chambers have been filled, apply the porous membrane to the chamber in accordance with the manufacturer's instructions. Finally, apply 25 μl of the appropriate cell solution to each upper chamber. A plastic lid is placed over the entire apparatus to prevent evaporation.
The assembled chamber is incubated at 37° C., 5% CO2, for 2 hours. A suspension of cells in GBSS+BSA is also incubated under identical conditions in a tube: these cells will be used to construct a standard curve for determining the number of cells that have migrated to the lower chamber under each condition.
At the end of the incubation, the liquid cell suspension is gently removed from the upper chamber, and 20 μl of ice-cold 20 mM EDTA in PBS is added to the upper chamber, and the apparatus is incubated at 4° C. for 15 mins. This procedure causes any cells adhering to the underside of the membrane to fall into the lower chamber.
After this incubation the filter is carefully flushed with GBSS+BSA to wash off the EDTA, and then the filter is removed. […]

Data set [3] concerns SDF-1α induced THP-1 cell migration. In words: ChemoTx transwell migration assay, SDF-1α induced migration of THP-1 cells. The data set is classed as cell-based. The conditions noted are these: Homo sapiens, maximal dose of chemoattractant, read-out: ED50 SDF-1α. As to the method: as §1, §2, §3, §4
(§5) To test a single compound for its ability to inhibit chemokine induced migration, it is necessary to prepare two lots of cells. The suspension of THP-1 cells at 4.45×10^6 cells/ml is divided into two pots. […]

Data set [4] concerns RANTES induced THP-1 cell migration. In words: ChemoTx transwell migration assay, RANTES induced migration of THP-1 cells. The data set is classed as cell-based. The conditions noted are these: Homo sapiens, maximal dose of chemoattractant, read-out: ED50 RANTES. As to the method:
as §1, §2, §3, §4, §5

Where [5] appears, read: THP-1 cells, maximal dose of chemoattractant, read-out: ED50 MCP-1.
The mark [6] stands for this setting: THP-1 migration inhibition, Table 5, read-out: Functional ED50 versus MCP-1.

In the case of `CC(C)(C)C(=O)N[C@H]1CCCNC1=O` [Compound (I′), 3-(2′,2′-dimethylpropanoylamino)-tetrahydropyridin-2-one], in data set [1] (Intravenous PK (1 mg/kg)), the clearance was determined as 1.9 mL/min/kg, the half-life was determined as 3.93 h and the Vd worked out at 0.6 L/kg. Also, in data set [1] (Oral PK (3 mg/kg)), the AUC was 20200 ng·h/mL, the Tmax was 1 h, the bioavailability was found to be 75% and the half-life is 3.62 h.
Turning to `CC(C)(C)S(=O)(=O)N[C@H]1CCCCNC1=O` [(IV), 3-(1′,1′-dimethylethylsulfonylamino)-caprolactam], the EC50 in data set [2] (setting [5]) and in data set [2] (setting [6]) was 0.8 nM in each case.
As for `O=C1NCCCC[C@@H]1NC(=O)C12CC3CC(CC(O)(C3)C1)C2` [(V), 3-(3′-hydroxyadamantyl-1-carbonylamino)-caprolactam], in data set [1] (Intravenous PK (1 mg/kg)), the clearance was found to be 7.4 mL/min/kg, the half-life stood at 1.1 h and the Vd stood at 0.6 L/kg. In addition, in data set [1] (Oral PK (3 mg/kg)), the AUC was 4000 ng·h/mL, the Tmax was 1 h, the bioavailability amounted to 59% and the half-life was determined as 1.12 h. Also, in data set [3], the EC50 came out at 0.2 nM.
`O=C1NCCCC[C@@H]1NC(=O)C12CC3CC(CC(C3)C1)C2` [(II), 3-(adamantane-1-carbonylamino)-caprolactam]: the EC50 worked out at 0.08 nM in data set [2] (setting [5]), 0.08 nM in data set [2] (setting [6]), 0.1 nM in data set [3] and 0.1 nM in data set [4].
